Reference: patent publication US6670446B1, “N1 modified glycopeptides” (Eli Lilly and Company, priority 1998, dated 2003)

Key:
Assay type in all cases: cell-based
[1] = tested on: Staphylococcus haemolyticus 415; assay: MIC, standard broth micro-dilution assay, SH 415
Protocol: (§1) The antibacterial efficacy of the present compounds is illustrated by Table III. The minimal inhibitory concentrations (MICs) were determined using a standard broth micro-dilution assay.

[2] = tested on: Staphylococcus aureus X778; assay: MIC, standard broth micro-dilution assay, SA X778
Protocol: as §1

[3] = tested on: Enterococcus faecalis 276; assay: MIC, standard broth micro-dilution assay, EF 276
Protocol: as §1

[4] = tested on: Enterococcus faecium 180-1; assay: MIC, standard broth micro-dilution assay, EF 180-1
Protocol: as §1

[5] = tested on: Enterococcus gallinarum 245; assay: MIC, standard broth micro-dilution assay, EG 245
Protocol: as §1

Enterococcus faecium 180 = assay: MIC, standard broth micro-dilution assay, EF 180
Protocol: as §1

[6] = tested on: Enterococcus faecalis 2041; assay: MIC, standard broth micro-dilution assay, EF 2041
Protocol: as §1

[7] = tested on: Staphylococcus epidermidis 270; assay: MIC, standard broth micro-dilution assay, SE 270
Protocol: as §1

[8] = tested on: Haemophilus influenzae RD; assay: MIC, standard broth micro-dilution assay, HFRD
Protocol: as §1

[9] = tested on: Staphylococcus aureus SA1199A; assay: MIC, standard broth micro-dilution assay, SA 1199A
Protocol: as §1

[10] = tested on: Staphylococcus aureus 491; assay: MIC, standard broth micro-dilution assay, SA 491
Protocol: as §1

[11] = tested on: Staphylococcus aureus 446; assay: MIC, standard broth micro-dilution assay, SA 446
Protocol: as §1

[12] = tested on: Resistant Enterococcus faecium and faecalis; assay: MIC, standard broth micro-dilution assay, Resistant; settings: geometric mean of 4-6 isolates
Protocol: as §1

[13] = tested on: Staphylococcus haemolyticus 105; assay: MIC, standard broth micro-dilution assay, SH 105
Protocol: as §1

[14] = tested on: Sensitive Enterococcus faecium and faecalis; assay: MIC, standard broth micro-dilution assay, Sensitive; settings: geometric mean of 4-6 isolates
Protocol: as §1

Escherichia coli EC14 = assay: MIC, standard broth micro-dilution assay, EC 14
Protocol: as §1

[15] = tested on: Staphylococcus aureus 447; assay: MIC, standard broth micro-dilution assay, SA 447
Protocol: as §1

[16] = tested on: Staphylococcus aureus S13E
Protocol: as §1

[17] = tested on: Staphylococcus aureus X400; assay: MIC, standard broth micro-dilution assay, SA X400
Protocol: as §1

[18] = tested on: Staphylococcus aureus 489; assay: MIC, standard broth micro-dilution assay, SA 489
Protocol: as §1

[19] = tested on: Staphylococcus aureus SA1199; assay: MIC, standard broth micro-dilution assay, SA 1199
Protocol: as §1

Compound: CC(C)CCC(=O)NC1C(=O)NC(CC(N)=O)C(=O)NC2C(=O)NC3C(=O)NC(C(=O)NC(C(=O)O)c4cc(O)cc(O)c4-c4cc3ccc4O)C(OC3CC(C)(N)C(O)C(C)O3)c3ccc(c(Cl)c3)Oc3cc2cc(c3OC2OC(CO)C(O)C(O)C2OC2CC(C)(NCc3ccc(-c4ccccc4)cc3)C(O)C(C)O2)Oc2ccc(cc2Cl)C1O (stereo not drawn) [Example 5, N^1-(4-methyl-n-pentanoyl)-N^DISACC-(p-phenylbenzyl)desleucylA82846B]
- minimal inhibitory concentration (MIC), SH 415 [1]: 1
- minimal inhibitory concentration (MIC), SA X778 [2]: 0.125
- minimal inhibitory concentration (MIC), EF 276 [3]: 1
- minimal inhibitory concentration (MIC), EF 180-1 [4]: ≦.06
- minimal inhibitory concentration (MIC), EG 245 [5]: 0.25
- minimal inhibitory concentration (MIC), EF 180 (Enterococcus faecium 180): 4
- minimal inhibitory concentration (MIC), EF 2041 [6]: ≦.06
- minimal inhibitory concentration (MIC), SE 270 [7]: 0.25
- minimal inhibitory concentration (MIC), HFRD [8]: >64
- minimal inhibitory concentration (MIC), SA 1199A [9]: ≦.06
- minimal inhibitory concentration (MIC), SA 491 [10]: ≦.06
- minimal inhibitory concentration (MIC), SA 446 [11]: 0.125
- minimal inhibitory concentration (MIC), Resistant [12]: 27
- minimal inhibitory concentration (MIC), SH 105 [13]: ≦.06
- minimal inhibitory concentration (MIC), Sensitive [14]: 0.44
- minimal inhibitory concentration (MIC), EC 14 (Escherichia coli EC14): >64
- minimal inhibitory concentration (MIC), SA 447 [15]: ≦.06
- minimal inhibitory concentration (MIC), SA S13E [16]: 0.125
- minimal inhibitory concentration (MIC), SA X400 [17]: ≦.06
- minimal inhibitory concentration (MIC), SA 489 [18]: 0.125
- minimal inhibitory concentration (MIC), SA 1199 [19]: 0.25

Compound: CC(C)C[C@@H](N)C(=O)N[C@H]1C(=O)N[C@@H](CC(N)=O)C(=O)N[C@H]2C(=O)N[C@H]3C(=O)NC(C(=O)N[C@H](C(=O)O)c4cc(O)cc(O)c4-c4cc3ccc4O)[C@H](OC3CC(C)(N)C(O)C(C)O3)c3ccc(c(Cl)c3)Oc3cc2cc(c3OC2OC(CO)C(O)C(O)C2OC2CC(C)(N)C(O)C(C)O2)Oc2ccc(cc2Cl)[C@H]1O (stereo partly drawn) [Example 17, N^1-D-leucine derivative of desleucylA82846B]
- minimal inhibitory concentration (MIC), SH 415 [1]: 1
- minimal inhibitory concentration (MIC), SA X778 [2]: 0.06
- minimal inhibitory concentration (MIC), EF 276 [3]: 0.06
- minimal inhibitory concentration (MIC), EF 180-1 [4]: ≦.06
- minimal inhibitory concentration (MIC), EG 245 [5]: 0.06
- minimal inhibitory concentration (MIC), EF 180 (Enterococcus faecium 180): 1
- minimal inhibitory concentration (MIC), EF 2041 [6]: ≦.06
- minimal inhibitory concentration (MIC), SE 270 [7]: 0.25
- minimal inhibitory concentration (MIC), HFRD [8]: 32
- minimal inhibitory concentration (MIC), SA 1199A [9]: ≦.06
- minimal inhibitory concentration (MIC), SA 491 [10]: 0.125
- minimal inhibitory concentration (MIC), SA 446 [11]: 0.5
- minimal inhibitory concentration (MIC), Resistant [12]: >32
- minimal inhibitory concentration (MIC), SH 105 [13]: 0.5
- minimal inhibitory concentration (MIC), Sensitive [14]: 0.5
- minimal inhibitory concentration (MIC), EC 14 (Escherichia coli EC14): >64
- minimal inhibitory concentration (MIC), SA 447 [15]: 0.5
- minimal inhibitory concentration (MIC), SA S13E [16]: 0.25
- minimal inhibitory concentration (MIC), SA X400 [17]: 0.06
- minimal inhibitory concentration (MIC), SA 489 [18]: 0.06
- minimal inhibitory concentration (MIC), SA 1199 [19]: 0.25

Compound: CSCCC(NC(=O)OC(C)(C)C)C(=O)NC1C(=O)NC(CC(N)=O)C(=O)NC2C(=O)NC3C(=O)NC(C(=O)NC(C(=O)O)c4cc(O)cc(O)c4-c4cc3ccc4O)C(OC3CC(C)(N)C(O)C(C)O3)c3ccc(c(Cl)c3)Oc3cc2cc(c3OC2OC(CO)C(O)C(O)C2OC2CC(C)(NCc3ccc(-c4ccccc4)cc3)C(O)C(C)O2)Oc2ccc(cc2Cl)C1O [Example 15, N^1-(N-BOC-D-methionine) derivative of N^DISACC-(p-phenylbenzyl)desleucylA82846B]
- minimal inhibitory concentration (MIC), SH 415 [1]: 1
- minimal inhibitory concentration (MIC), SA X778 [2]: 0.5
- minimal inhibitory concentration (MIC), EF 276 [3]: 0.5
- minimal inhibitory concentration (MIC), EF 180-1 [4]: ≦.06
- minimal inhibitory concentration (MIC), EG 245 [5]: 1
- minimal inhibitory concentration (MIC), EF 180 (Enterococcus faecium 180): 8
- minimal inhibitory concentration (MIC), EF 2041 [6]: 0.25
- minimal inhibitory concentration (MIC), SE 270 [7]: 0.25
- minimal inhibitory concentration (MIC), HFRD [8]: >64
- minimal inhibitory concentration (MIC), SA 1199A [9]: 0.125
- minimal inhibitory concentration (MIC), SA 491 [10]: 1
- minimal inhibitory concentration (MIC), SA 446 [11]: 1
- minimal inhibitory concentration (MIC), Resistant [12]: 27
- minimal inhibitory concentration (MIC), SH 105 [13]: 1
- minimal inhibitory concentration (MIC), Sensitive [14]: 1.2
- minimal inhibitory concentration (MIC), EC 14 (Escherichia coli EC14): >64
- minimal inhibitory concentration (MIC), SA 447 [15]: 1
- minimal inhibitory concentration (MIC), SA S13E [16]: 1
- minimal inhibitory concentration (MIC), SA X400 [17]: 1
- minimal inhibitory concentration (MIC), SA 489 [18]: 1
- minimal inhibitory concentration (MIC), SA 1199 [19]: 2

Compound: CC(C)CCC(=O)N[C@H]1C(=O)N[C@@H](CC(N)=O)C(=O)N[C@H]2C(=O)N[C@H]3C(=O)NC(C(=O)N[C@H](C(=O)O)c4cc(O)cc(O)c4-c4cc3ccc4O)[C@H](OC3CC(C)(N)C(O)C(C)O3)c3ccc(c(Cl)c3)Oc3cc2cc(c3OC2OC(CO)C(O)C(O)C2OC2CC(C)(N)C(O)C(C)O2)Oc2ccc(cc2Cl)[C@H]1O (stereo partly drawn) [Example 4, N^1-(4-methyl-n-pentanoyl)desleucylA82846B]
- minimal inhibitory concentration (MIC), SH 415 [1]: 16
- minimal inhibitory concentration (MIC), SA X778 [2]: 0.5
- minimal inhibitory concentration (MIC), EF 276 [3]: 0.5
- minimal inhibitory concentration (MIC), EF 180-1 [4]: 0.5
- minimal inhibitory concentration (MIC), EG 245 [5]: 4
- minimal inhibitory concentration (MIC), EF 180 (Enterococcus faecium 180): >64
- minimal inhibitory concentration (MIC), EF 2041 [6]: 1
- minimal inhibitory concentration (MIC), SE 270 [7]: 0.5
- minimal inhibitory concentration (MIC), HFRD [8]: >64
- minimal inhibitory concentration (MIC), SA 1199A [9]: 0.5
- minimal inhibitory concentration (MIC), SA 491 [10]: 0.125
- minimal inhibitory concentration (MIC), SA 446 [11]: 1
- minimal inhibitory concentration (MIC), Resistant [12]: >128
- minimal inhibitory concentration (MIC), SH 105 [13]: 0.25
- minimal inhibitory concentration (MIC), Sensitive [14]: 4
- minimal inhibitory concentration (MIC), EC 14 (Escherichia coli EC14): >64
- minimal inhibitory concentration (MIC), SA 447 [15]: 1
- minimal inhibitory concentration (MIC), SA S13E [16]: 0.5
- minimal inhibitory concentration (MIC), SA X400 [17]: 0.25
- minimal inhibitory concentration (MIC), SA 489 [18]: 0.5
- minimal inhibitory concentration (MIC), SA 1199 [19]: 0.5

Compound: CC1OC(OC2c3ccc(c(Cl)c3)Oc3cc4cc(c3OC3OC(CO)C(O)C(O)C3OC3CC(C)(NCc5ccc(-c6ccccc6)cc5)C(O)C(C)O3)Oc3ccc(cc3Cl)C(O)C(NC(=O)C3CCCN3C(=O)OC(C)(C)C)C(=O)NC(CC(N)=O)C(=O)NC4C(=O)NC3C(=O)NC2C(=O)NC(C(=O)O)c2cc(O)cc(O)c2-c2cc3ccc2O)CC(C)(N)C1O [Example 26, N^1-(N-BOC-D-proline) derivative of N^DISACCC-(p-phenylbenzyl)desleucylA82846B]
- minimal inhibitory concentration (MIC), SH 415 [1]: 2
- minimal inhibitory concentration (MIC), SA X778 [2]: 0.5
- minimal inhibitory concentration (MIC), EF 276 [3]: 1
- minimal inhibitory concentration (MIC), EF 180-1 [4]: ≦.06
- minimal inhibitory concentration (MIC), EG 245 [5]: 0.5
- minimal inhibitory concentration (MIC), EF 180 (Enterococcus faecium 180): 4
- minimal inhibitory concentration (MIC), EF 2041 [6]: 0.25
- minimal inhibitory concentration (MIC), SE 270 [7]: 0.25
- minimal inhibitory concentration (MIC), HFRD [8]: >64
- minimal inhibitory concentration (MIC), SA 1199A [9]: 0.125
- minimal inhibitory concentration (MIC), SA 491 [10]: ≦.06
- minimal inhibitory concentration (MIC), SA 446 [11]: 2
- minimal inhibitory concentration (MIC), Resistant [12]: 23
- minimal inhibitory concentration (MIC), SH 105 [13]: 1
- minimal inhibitory concentration (MIC), Sensitive [14]: 0.76
- minimal inhibitory concentration (MIC), EC 14 (Escherichia coli EC14): >64
- minimal inhibitory concentration (MIC), SA 447 [15]: 1
- minimal inhibitory concentration (MIC), SA S13E [16]: 1
- minimal inhibitory concentration (MIC), SA X400 [17]: 0.5
- minimal inhibitory concentration (MIC), SA 489 [18]: 0.5
- minimal inhibitory concentration (MIC), SA 1199 [19]: 1
